biological target: T1, Acetylcholinesterase (Bos taurus, UniProt P23795); assay: Inhibition of bovine erythrocytes AChE using acetylthiocholine iodide as substrate incubated for 15 to 20 mins by Ellman's methods; parameters: species or system Erythrocyte; conditions: not given
T1 sequence (P23795 whole entry): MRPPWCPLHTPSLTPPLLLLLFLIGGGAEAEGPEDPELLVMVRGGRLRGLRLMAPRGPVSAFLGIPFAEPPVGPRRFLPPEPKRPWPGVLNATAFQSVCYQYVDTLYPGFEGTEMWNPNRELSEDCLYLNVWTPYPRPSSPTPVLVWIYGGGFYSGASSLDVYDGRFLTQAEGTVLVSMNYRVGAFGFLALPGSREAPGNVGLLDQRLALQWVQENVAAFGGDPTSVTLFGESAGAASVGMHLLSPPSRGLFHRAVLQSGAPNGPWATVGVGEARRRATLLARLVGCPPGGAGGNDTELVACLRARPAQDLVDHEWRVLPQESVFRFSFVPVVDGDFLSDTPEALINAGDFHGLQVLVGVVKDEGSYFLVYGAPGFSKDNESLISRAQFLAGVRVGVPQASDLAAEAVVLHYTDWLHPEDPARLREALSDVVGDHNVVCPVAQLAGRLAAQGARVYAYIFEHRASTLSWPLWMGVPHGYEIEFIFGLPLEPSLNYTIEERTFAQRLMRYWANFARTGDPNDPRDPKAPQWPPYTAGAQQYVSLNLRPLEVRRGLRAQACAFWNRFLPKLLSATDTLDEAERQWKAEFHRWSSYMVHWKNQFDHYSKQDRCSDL

SMILES | IC50 [nM]
C/C=C1\[C@H]2C=C(CO)C[C@]1(N)c1ccc(=O)[nH]c1C2 | 2100
C/C=C1\[C@H]2C=C(C)C[C@]1(N)c1ccc(=O)[nH]c1C2 [HUPERZINE A] | 100
C/C=C1\[C@H]2C=C(C(=O)OC)C[C@]1(N)c1ccc(=O)[nH]c1C2 | 4200

biological target: T2, Acetylcholinesterase (Bos taurus) (UniProt P23795); assay: Inhibition of bovine erythrocytes AChE using acetylthiocholine iodide as substrate at 100 uM incubated for 15 to 20 mins by Ellman's methods relative to control; type: tissue-based; conditions: Erythrocyte, time min 15-20
T2 sequence (whole entry): T1 sequence (P23795 whole entry)

SMILES | inhibition [%]
C[C@H]1C[C@@]23NCCC[C@@H]2[C@H](Cc2ncccc23)[C@@H]1O | < 50
C[C@H]1C[C@@]23[C@H]4CCCN2CC[C@H]2O[C@]23[C@H](C[C@@H]4OC(=O)CCc2ccc(O)cc2)[C@@H]1O | < 50
C[C@H]1C[C@]23C4=CCCN2CCC[C@@H]3[C@H](O)[C@@H](O)[C@@H]4[C@@H]1O | < 50
O=c1ccc2c([nH]1)C[C@@H]1C[C@@H](CO)C[C@]23NCCC[C@H]13 | < 50
C/C=C1\[C@@H]2Cc3[nH]c(=O)ccc3[C@@]1(N)C[C@H](CO)C2 | < 50
C[C@@H]1C[C@@]2(O)C[C@@H]3O[C@H]4CC[N+]5([O-])CCC[C@@H]3[C@@]5(C1)[C@]42O (stereo partly specified) | < 50
O=C1C[C@@H]2C=C(CO)C[C@@]34[C@@H]1CCCN3CCC[C@H]24 | < 50
C[C@H]1C[C@@]23NCCC[C@@H]2[C@](O)(Cc2ncccc23)[C@H]1O | < 50
C[C@@H]1C[C@H]2Cc3[nH]c(=O)ccc3[C@@](N)(C1)/C2=C/CO | < 50
C[C@@H]1C[C@H]2C[C@@H]3O[C@]24[C@H](O)CCN2CCC[C@@H]3[C@]24C1 | < 50
C[C@H]1CC2=[N+]([O-])CCC[C@]23c2cccnc2C[C@@H]3[C@@H]1O | < 50
C[C@@H]1C[C@H]2Cc3[nH]c(=O)ccc3[C@]3(C1)NCC[C@@H](O)[C@H]23 | < 50
C[C@H]1C[C@]23C4=CCCN2CCC[C@H]3[C@@H](O)C[C@@H]4[C@@H]1O | < 50
C[C@H]1C=C2N3CCC[C@@H]4C(=O)C[C@H]([C@@H]1O)[C@]24CCC3 | < 50
CC(=O)NC1=C2CCC[N+]3([O-])CCC[C@]4(O)[C@H](C1)C[C@@H](C)C[C@]243 (stereo partly specified) | < 50
C[C@@H]1C[C@@]2(O)C[C@H](OC(=O)CCc3ccc(O)cc3)[C@@H]3CCCN4CC[C@H]5O[C@@]52[C@]34C1 | < 50
CO[C@@]12C[C@@H]3C[C@@H](C)C[C@@]4(O1)N1CCC[C@@]2(O)[C@]34CCC1 | < 50
C[C@@H]1C[C@H]2C[C@H](OC(=O)CCc3ccc(O)cc3)[C@@H]3CCCN4CC[C@H]5O[C@]25[C@]34C1 | < 50

Source: ChEMBL document CHEMBL4699505, “Lycosquarrines A-R, Lycopodium Alkaloids from Phlegmariurus squarrosus” (J Nat Prod, 2020)
